Experimental data published in US20030224983A1, “Stimulation of beta cell proliferation” (priority 1998, published 2003).

How the values were obtained:
[1] = test system: beta cells (insulin positive cells in pancreatic islet cells from newborn rats); assay: beta cell proliferation in vitro, BrdU incorporation in insulin positive islet cells; format: cell-based, rat; conditions: for number of labelled beta cells: then 10 μM BrdU for 90 min, absence of hormones 0.6%
Description: Diabetes is characterized by insufficiency of the pancreatic beta cells to maintain normoglycemia. In type 1 diabetes (IDDM) this is due to destruction of the beta cells by an autoimmune process whereas in type 2 diabetes (NIDDM) it is due to a combination of beta cell deficiency and peripheral insulin resistance. […] However in diabetic patients the number of beta cells is reduced and it is therefore pertinent not only to improve the function of the beta cells by therapeutical means but also to increase the number of beta cells. […] In our efforts to identify beta cell growth factors we discovered that GLP-1 indeed could stimulate beta cell proliferation in vitro. The proliferation was measured as incorporation of the thymidine analogue 5-bromo-2-deoxyuridine into DNA in insulin positive cells in pancreatic islet cells from newborn rats. […] This may have important implication for the treatment and/or prevention of diabetes.
The protocol was a slight modification of the procedure described by Billestrup and Nielsen (Billestrup N, Nielsen J H: The stimulatory effect of growth hormone, prolactin, and placental lactogen on beta cell proliferation is not mediated by insulin-like growth factor-I. Endocrinology 1991; 129:883-888.). Pancreatic islets were isolated from newborn rats by the collagenase method and cultured for 2-5 days before use. 2000 islets were transfered to 15 ml plastic tubes and washed once with Ca/Mg-free Hank's balanced salt solution. 500 μl cold trypsin solution (0.05% trypsin, 0.53 mM EDTA in Ca/Mg-free Hank's solution). The islets were dispersed by aspiration with a pipette. 5 ml culture medium RPMI 1640 with 2% human serum was added. 75,000 islet cells were then placed in tissue culture flasks previously coated with ECL cell attachment matrix (Upstate Biotechnology) with 2 ml culture medium with 1 μg/ml human growth hormone (hGH) (Norditropin, Novo Nordisk). After 7 days in culture at 37C the medium was replaced with culture medium without hGH or with addition of 100 nM GLP-1, 5 μM Arg^34, Lys^26(N-ε-(γ-Glu(N-α-hexadecanoyl)))-GLP-1(7-37) or 200 ng/ml hGH. After 2 days in culture 10 μM 5-bromo-2-deoxyuridine (BrdU) was added and after 90 min the medium was removed and the cells fixed in 1% paraformaldehyde in 0.1 M phosphate buffer. The cells were then stained with antibodies to BrdU and insulin as described (Billestrup and Nielsen, 1991). The number of labelled beta cells in the absence of hormones was 0.6% and in the presence of hGH 3.5%. In the presence of GLP-1 the number was 1.7% and in the presence of Arg^34, Lys^26(N-ε-(γ-Glu(N-α-hexadecanoyl)))-GLP-1(7-37) 1.4%.

[2] = test system: male Zucker Diabetic Fatty fa/fa (ZDF) rat; assay: oral glucose tolerance test in ZDF rats; format: in vivo; conditions: group C, 150 μg/kg bi-daily, after 36 days; 11-hour fast, 1 g/kg glucose by oral gavage; total AUC, p<0.0002 by ANOVA
Description: (§1) The male Zucker Diabetic Fatty fa/fa (ZDF) rat is a model of Type 2 diabetes. The rats are insulin resistant but normoglycemic from birth and they develop diabetes from about week 7 to week 10 of age. During the transitional period, the animals go through a state of impaired glucose tolerance. Although the animals are hyperinsulinemic before diabetes onset and during the early stages of diabetes, they later lose glucose-stimulated insulin secretion and finally become almost completely insulinopenic.
(§2) We have studied the effects of Arg^34, Lys^26(N-ε-(γ-Glu(N-α-hexadecanoyl)))-GLP-1(7-37) therapy during a period of time when the animals would normally progress from having impaired glucose tolerance to having overt Type 2 diabetes. Three groups of male ZDF rats (Genetic Models Inc, Indianapolis, Ind., U.S.A.) were studied and dosed subcutaneously bi-daily with either vehicle (group A), 30 (group B) or 150 μg/kg (group C) of Arg^34, Lys^26(N-ε-(γ-Glu(N-α-hexadecanoyl)))-GLP-1(7-37), n=6 per group. Animals were between 7 and 8 weeks old when dosing was initiated, and fed glucose levels were not different between the groups before dosing began. […] After 36 days of dosing, an oral glucose tolerance test was performed in the animals after an 11-hour fast. One g/kg of glucose was administered by oral gavage and subsequent measurements of blood glucose and plasma insulin were made.

[3] = test system: male Zucker Diabetic Fatty fa/fa (ZDF) rat; assay: blood glucose during a normal 24-hour feeding schedule in ZDF rats; format: in vivo
Description: as §1, §2

[4] = test system: beta-cells of ZDF rats; assay: beta-cell proliferation rate in vivo, BrDU and insulin double staining of pancreas sections; parameters: species or system rat; conditions: 30 and 150 μg/kg bi-daily, 100 mg BrDU/kg i.p. six hours before sacrifice
Description: (§3) The rat experiment described in example 2 were examined for effects of Arg^34, Lys^26(N-ε-(γ-Glu(N-α-hexadecanoyl)))-GLP-1(7-37) (named GLP-1 in FIG. 3 and 4) on beta-cell growth and neogenesis.
Bromodeoxyuridine (BrDU) is incorporated in newly synthesized DNA and thus will label replicating cells. Six hours before sacrifice the rats were given an injection of 100 mg BrDU/kg intraperitoneally. After sacrifice the pancreata were fixed in 4% PFA, dehydrated, embedded in paraffin, and […] sections double stained for BrDU and insulin for the measurement of beta-cell proliferation rate.
Insulin was stained with guinea pig anti-insulin, peroxidase-coupled rabbit anti-guinea pig Ig, and developed with AEC to give a red stain. BrDU was stained by monoclonal mouse anti-BrDU, biotinylated goat anti-mouse Ig, avidin peroxidase, and developed with DAB and CuSO4 to give a dark brown stain. BrDU stained nuclei of cells with insulin stained cytoplasm was examined in more than 1500 cells per section. The examination of the sections were carried out with the origin of the sections blinded to the observer.

[5] = test system: beta-cells of ZDF rats; assay: relative mass of islet beta-cells, point counting stereologic techniques; format: in vivo, rat
Description: as §3
Neighbor sections were stained for insulin and the combination of glucagon-somatostatin-pancreatic polypeptide for the measurement of the relative mass of islet beta-cells and nonbeta-cells. The beta-cells were stained for insulin as described above. The nonbeta-cells were stained with a mixture of monoclonal mouse anti-glucagon+rabbit anti-somatostatin+rabbit anti-pancreatic polypeptide, detected by biotinylated swine anti-multible Ig's, avidin peroxidase, and developed with DAB and CuSO4 to give a dark brown stain. The volume fractions of beta- and nonbeta-cells were estimated by point counting stereologic techniques.

Q: For “hGH: human growth hormone (hGH) (Norditropin, Novo Nordisk)”, which “number of labelled beta cells” value ([1]; 200 ng/ml hGH, 2 days in culture) is on record?
A: The value was 3.5%.

Q: What does the source list for “GLP-1: The term GLP-1 means GLP-1(7-37) or GLP-1(7-36) amide [reference compound]”?
A: number of labelled beta cells ([1]; 100 nM GLP-1, 2 days in culture): 1.7%; number of labelled beta cells (in words) ([1]; BrdU incorporation into DNA in insulin positive cells, newborn rat islet cells): increase the number of labelled beta cells

Q: Which “glycemic level in oral glucose tolerance test, compared to groups A and B” value [2] does the source give for “Arg^34, Lys^26(N-ε-(γ-Glu(N-α-hexadecanoyl)))-GLP-1(7-37)” here?
A: The value was “significantly lower”.

Q: What about the “number of labelled beta cells” value ([1]; 5 μM, 2 days in culture) of the same substance?
A: The value was 1.4%.

Q: What about the “blood glucose levels during a normal 24-hour feeding schedule” value ([3]; group B (low dose), 30 μg/kg subcutaneously bi-daily, after 10 days of dosing) of the same substance?
A: Its value is “hyperglycemic”.

Q: And the “blood glucose levels during a normal 24-hour feeding schedule, compared to initial measurements” value ([3]; group C, 150 μg/kg subcutaneously bi-daily, after 10 days of dosing)?
A: Its value is “unchanged compared to the initial measurements”.

Q: What about the “blood glucose levels during a normal 24-hour feeding schedule, compared to vehicle- and low-dose-treated animals” value ([3]; group C, 150 μg/kg subcutaneously bi-daily, after 10 days, total area under the curve, p<0.0002 by ANOVA) of the same substance?
A: The value was “significantly lower”.

Q: What about the “fraction of beta-cells that had incorporated BrDU” value [4] of the same substance?
A: Its value is “dose dependent increase”.

Q: What about the “beta-cell fraction of the total pancreas, compared to vehicle treated rats” value ([5]; 30 ng/g for 6 weeks) of the same substance?
A: Its value is “significantly higher”.

Q: And the “beta-cell fraction of the total pancreas” value ([5]; 150 ng/g, compared to 30 ng/g)?
A: The value was “no further increase”.
